Assay results as given in US10858406B2 (priority 2014, dated 2020).

System: potassium ion channel current of the DRG neurons
Format: cell-based, SD rats
Settings: 5 mM

## Nc1ccncc1 [4AP, 4-aminopyridine]
  Current inhibition rate: 0.338
  Current recorded after loading: 0.9766 nA
